The values that follow come from ChEMBL document CHEMBL4673295 (Bioorg Med Chem, 2021).

Assay [1] can be described thus: Binding affinity to Escherichia coli BL21 (DE3) HPPK incubated for 10 mins by fluorimetry.
Assay [2] is described as follows: Inhibition of Escherichia coli HPPK incubated for 30 mins by thin layer chromatography.
Assay [3] in a line: Binding affinity to Escherichia coli HPPK by isothermal titration calorimetry.
The nature of assay [4]: Binding affinity to Escherichia coli BL21 (DE3) HPPK in presence of ATP and MgCl2 by fluorimetry.

The compound `Nc1ncnc2c1ncn2[C@@H]1O[C@H](COP(=O)(O)OP(=O)(O)OP(=O)(O)O)[C@@H](O)[C@H]1O` [ADENOSINE TRIPHOSPHATE] registered a Kd in assay [1] of 2600 nM.

In assay [2], `CC1(C)Nc2nc(N)[nH]c(=O)c2N=C1C(=O)NCCN1CC[C@@H](SC[C@H]2O[C@@H](n3cnc4c(N)ncnc43)[C@H](O)[C@@H]2O)C[C@@H]1C(=O)O` returned an IC50 of 380 nM. For the same compound, binding in assay [3] was put at a Kd of 190 nM.

In assay [3], `CC1(C)Nc2nc(N)[nH]c(=O)c2N=C1C(=O)NCCN1CC[C@@H](S(=O)(=O)C[C@H]2O[C@@H](n3cnc4c(N)ncnc43)[C@H](O)[C@@H]2O)C[C@@H]1C(=O)O` had a Kd of 47 nM.

For the compound `Nc1nc2c(c(=O)[nH]1)N=C(CO)CN2`, the Kd in assay [4] is 170 nM.
